Test results taken from patent US20020193343A1, “Controlled enzymatic degradation of guar galactomannan solutions using enzymatic inhibition” (priority 2000, published 2002).

Experiments:
[1] = system: Aspergillus niger β-mannanase; test: Enzyme degradation assay of guar solutions (viscosity reduction, steady shear rheology); format: biochemical; settings: for inhibition of β-mannanase by TRIS variants (zero shear viscosity): 25 mM
Description: Enzyme Degradation Assay: Enzyme degradation was conducted with 7 mg/ml purified guar solutions containing 0.2 mg/ml sodium azide and 20 mM of the appropriate buffer. Guar solutions (19 ml) and enzyme stock solution were separately pre-incubated at 25° C. for 15 minutes, followed by the addition of 78.9 μl of enzyme stock solution to 19 ml of guar solution. The final enzyme concentration was 8.3×10^−4 U/ml. The mixture was shaken at an agitation speed of 2 at 25° C. for 1 hour in a New Brunswick gyrotory water bath shaker (Model G76). The enzyme was denatured after 1 hour by placing the enzyme/guar solution in a 90° C. water bath for 10 minutes. Enzyme hydrolysis was conducted at different pH's using various buffers: sodium acetate was used for pH 4 and 5, MES was used for pH 6, sodium phosphate was used for pH 7 and pH 8 and glycine was used for pH 9. If inhibitor, inhibitor variant or NaCl was used, the appropriate amount was added to the guar solution and the pH was readjusted to the appropriate value. […] After incubating each of these solutions at 25° C. for 30 minutes, 78.9 μl of this solution was added to 19 ml of guar solution and the enzymatic degradation of guar was analyzed following known techniques.
Rheology: Steady shear experiments were conducted using a Rheometrics Dynamic Stress Rheometer (DSR II) and a couette fixture with a cup diameter of 31.9 mm, a bob diameter of 29.5 mm and a bob length of 44.25 mm. All experiments were performed at 25° C. and all reported data were reproducible within 10%. Steady shear experiments were performed to determine viscosity, η, as a function of shear rate. […] To analyze a portion of the data, a normalized relative activity was defined using the viscosity data. At a particular pH, the viscosity difference (Δη) between the initial zero shear viscosity and the zero shear viscosity after 1 hour of degradation was used as the reference Δη. […] In summary, [formula]

[2] = from 25 degrees C. to 60 degrees C.
Excerpt: The relative amounts of the two forms are dependent on the pH of the solution and can be predicted by the Henderson-Hasselbach equation.

Molecule: Tris(hydroxymethyl)aminomethane [base form of TRIS]
- inhibition of β-mannanase, base form compared with hydrochloride form ([1]; base form of TRIS (without any salts)): exactly the same as that of TRIS in its hydrochloride form

Molecule: NC(CO)(CO)CO [TRIS, 2-amino-2-hydroxymethyl-1,3-propanediol]
- inhibition of β-mannanase degradation of guar ([1]; 1 mM TRIS, pH 9, 1 hour): only minimal inhibition
- viscosity reduction of guar by β-mannanase ([1]; 1 mM TRIS, pH 9, 5 hours): impeded viscosity reduction considerably
- inhibition of β-mannanase degradation of guar ([1]; 5 mM TRIS, pH 9, 1 hour): inhibited the degradation considerably
- viscosity reduction of guar by β-mannanase ([1]; 10 mM TRIS, pH 9, 5 hours): minimal viscosity reduction
- viscosity reduction of guar by β-mannanase ([1]; 10 mM and higher TRIS, pH 9, 1 hour): no viscosity reduction
- inhibition of enzyme degradation ([1]; 25mM TRIS, pH 9, enzyme 8.3×10^−4 U/ml): inhibits enzyme degradation for an extended period of time
- viscosity reduction of guar by β-mannanase ([1]; 25 mM and higher TRIS, pH 9, 5 hours): no viscosity reduction
- inhibition after mixing TRIS with the enzyme solution before addition to guar ([1]; TRIS to enzyme molar ratio 1:1 and 5:1, 30 minutes pre-incubation): neither of these solutions showed any inhibition
- type of inhibition ([1]; degradation triggered after 5 hours by pH shift): reversible inhibitor
- effect on enzymatic hydrolysis by β-mannanase ([1]; pH 4, 1 hour, 0-25 mM TRIS): did not impede enzymatic hydrolysis
- inhibition of β-mannanase at pH 7 compared with pH 9 ([1]; pH 7, low concentrations of TRIS, 1 hour): better inhibitor of the enzyme than at pH 9
- viscosity reduction of guar by β-mannanase with TRIS as buffer ([1]; pH 8, 1 hour, 7 mg/ml guar, 8.3×10^−4 U/ml enzyme): negligible reduction in viscosity
- pH drop on temperature increase [2]: 0.98

Molecule: O=[N+]([O-])C(CO)(CO)CO [Tris (hydroxymethyl) nitromethane, reference compound]
- inhibition of β-mannanase by TRIS variants (zero shear viscosity) ([1]; pH 9, 1 hour): no inhibition

Molecule: O=C(O)CNC(CO)(CO)CO [N-tris (hydroxymethyl) methylglycine, reference compound]
- inhibition of β-mannanase by TRIS variants (zero shear viscosity) ([1]; pH 9, 1 hour): no inhibition

Molecule: [Cl-].[Na+] [NaCl]
- effect of added salt on viscosity reduction by the enzyme ([1]; pH 4 and pH 9, same quantities as with TRIS hydrochloride): did not alter the viscosity reduction
